This passage reports MIC results from US9232793B2, “Methods of inhibiting microbial growth using deoxyaldohexoses” (LVMH Recherche, priority 2008, dated 2016).

Holding throughout (test): Agar diffusion antimicrobial test, MIC determination
Holding throughout (type): cell-based

Experiment [1] deals with Pseudomonas aeruginosa CIP 82.1118. As to conditions: P. aeruginosa. As for the experimental part: (§1) The culture medium at pH 6, pH 7 and pH 8, inoculated beforehand with the test strains, is poured into Petri dishes, with one pH and one strain per dish. After solidification, 100 μl are deposited for each of the concentrations of the test substance, as well as a solvent control and a positive control. After incubation, the inhibition diameter is measured after diffusion of the test product into the agar, and there is deduced therefrom the minimum bacteriostatic concentration (MIC), which is the lowest concentration of product inhibiting the multiplication of the microbes. The test strains are the following: • Aspergillus niger IP 1431.83, • Candida albicans IP 48.72, • Enterococcus hirae CIP 58.55, • Staphylococcus aureus CIP 4.83, • Burkholdena cepacia CIP 103924, • Pseudomonas aeruginosa CIP 82.1118. For each strain, 120 ml of each of the three Mueller Hinton media pH 6, pH 7 and pH 8 are inoculated with 1.2 ml of each suspension of microbe having a titre of 10^7 CFU/ml in order to obtain a titre equal to 10^5 CFU/ml. 15 ml are poured into each dish, with one dish per medium and per strain. After solidification, three steel cylinders are placed at the surface of each dish. 100 mg (approximately) of the powder consisting of the test alkyl glycoside are taken up in 1 ml of methanol (solution A at 10%). Next, the concentration range is prepared as described below: • Solution B1 at 1%: 300 μl of solution A+2.7 ml of sterile water, • Solution B2 at 0.5%: 300 μl of solution A+5.7 ml of sterile water, • Solution B3 at 0.1%: 1 ml of solution B1+9 ml of sterile water, • Solution B4 at 0.05%: 1 ml of solution B2+9 ml of sterile water. Only solutions B2, B3 and B4 are tested during the trial. 100 μl (pH 6, pH 7 and pH 8) of the following solutions are introduced into each cylinder: • Methanol control (prepared for each strain at pH 7), • Solution B4 at 0.05%, • Solution B3 at 0.1%, • Solution B2 at 0.5%. Incubation at 37° C.±1° C. for 24 hours (48 h for Enterococcus hirae). The inhibition of growth of the microbes leads to measurement, using a vernier caliper, in millimeters, of an inhibition diameter after diffusion of the test product into the agar. The minimum bacteriostatic concentration (MIC) is given by the lowest concentration of product which inhibits the multiplication of the microbes. In the case where the highest concentration ([…]) is not active, this is noted (>500). The tests were carried out on various strains at pH 7, for alkyl glycoside concentrations equal to 0.05%, 0.1% and 0.5% by weight.

Experiment [2] relates to Candida albicans IP 48.72. As to conditions: C. albicans. The protocol:
as §1

Experiment [3] relates to Burkholdena cepacia CIP 103924. The following applies: B. cepacia. The protocol: as §1
Experiment [4] concerns Staphylococcus aureus CIP 4.83. As to conditions: S. aureus. The protocol:
as §1

For experiment [5], the system named is Aspergillus niger IP 1431.83. As to conditions: A. niger. As for the experimental part:
as §1

Experiment [6] deals with Enterococcus hirae CIP 58.55. As to conditions: E. hirae. As for the experimental part:
as §1

Consider `CCCCCCCCO[C@H]1O[C@@H](C)[C@@H](O)[C@@H](O)[C@@H]1O` [Fuc-8, octyl beta-L-fucoside], for which the minimum inhibitory concentration (MIC) in experiment [1] (pH 7) was > 500 µg/mL; in experiment [1] (pH 7, value in brackets) it was > 1810 µM; in experiment [2] (pH 7), 100 µg/mL; in experiment [2] (pH 7, value in brackets), 362 µM; in experiment [3] (pH 7), > 500 µg/mL; in experiment [3] (pH 7, value in brackets), > 1810 µM. Further, the MIC stood at 50 µg/mL in experiment [4] (pH 7); 181 µM in experiment [4] (pH 7, value in brackets); 50 µg/mL in experiment [5] (pH 7); 181 µM in experiment [5] (pH 7, value in brackets); 50 µg/mL in experiment [6] (pH 7); 181 µM in experiment [6] (pH 7, value in brackets).

Take `CCCCCCCCCCCCO[C@H]1O[C@@H](C)[C@@H](O)[C@@H](O)[C@@H]1O` [Fuc-12, dodecyl beta-L-fucoside]: the MIC was > 500 µg/mL in experiment [1] (pH 7); > 1500 µM in experiment [1] (pH 7, value in brackets); > 500 µg/mL in experiment [2] (pH 7); > 1500 µM in experiment [2] (pH 7, value in brackets); > 500 µg/mL in experiment [3] (pH 7); > 1500 µM in experiment [3] (pH 7, value in brackets). Besides, the MIC in experiment [4] (pH 7) worked out at 50 µg/mL; in experiment [4] (pH 7, value in brackets), 150 µM; in experiment [5] (pH 7), 50 µg/mL; in experiment [5] (pH 7, value in brackets), 150 µM; in experiment [6] (pH 7) it was 50 µg/mL; in experiment [6] (pH 7, value in brackets) it was 150 µM.

As to `CCCCCCCCOC1O[C@@H](C)[C@H](O)[C@@H](O)[C@H]1O` (stereo partly drawn) [Rha-8, octyl L-rhamnoside], the minimum inhibitory concentration (MIC) in experiment [1] (pH 7) turned out to be 100 µg/mL; in experiment [1] (pH 7, value in brackets), 362 µM; in experiment [2] (pH 7) it was 100 µg/mL; in experiment [2] (pH 7, value in brackets), 362 µM; in experiment [3] (pH 7), 100 µg/mL; in experiment [3] (pH 7, value in brackets), 362 µM. Moreover, the MIC in experiment [4] (pH 7) was determined as 50 µg/mL; in experiment [4] (pH 7, value in brackets), 181 µM; in experiment [5] (pH 7), 50 µg/mL; in experiment [5] (pH 7, value in brackets) it was 181 µM; in experiment [6] (pH 7), 50 µg/mL; in experiment [6] (pH 7, value in brackets) it was 181 µM.

On to `CCCCCCCCCCCCOC1O[C@@H](C)[C@H](O)[C@@H](O)[C@H]1O` (stereo partly drawn) [Rha-12, dodecyl L-rhamnoside], for which the MIC was 50 µg/mL in experiment [1] (pH 7); 150 µM in experiment [1] (pH 7, value in brackets); 50 µg/mL in experiment [2] (pH 7); 150 µM in experiment [2] (pH 7, value in brackets); 100 µg/mL in experiment [3] (pH 7); 301 µM in experiment [3] (pH 7, value in brackets). Further, the minimum inhibitory concentration (MIC) was 50 µg/mL in experiment [4] (pH 7); 150 µM in experiment [4] (pH 7, value in brackets); 50 µg/mL in experiment [5] (pH 7); 150 µM in experiment [5] (pH 7, value in brackets); 50 µg/mL in experiment [6] (pH 7); 150 µM in experiment [6] (pH 7, value in brackets).
